From patent publication US20240342184A1, “USE OF ENHANCER 3C1 IN PREPARATION OF ENHANCER FOR INTERACTION BETWEEN FXR AND CASPASE 8” (CHINA PHARMACEUTICAL UNIVERSITY, priority 2021, published 2024)

What was measured:
[1] = system: human hepatocyte cell line L02; experiment: MTT cell viability assay in induced hepatocyte apoptosis models; format: cell-based; details: 3C1 at 1, 10, 100 μM, L02 cells
Method: A human hepatocyte cell line L02 was cultured in complete medium DMEM containing 10% fetal bovine serum (FBS), and placed in a culture incubator containing 5% CO2 at 37° C., and cells in a logarithmic growth phase were inoculated in a 96-well plate at a density of 5×10^3 cells/well. The cells were transfected at 50 nM after 24 h. Hepatocyte apoptosis was induced 48 h later after the transfection. […]
In addition to an apoptosis reagent, the compound 3C1 of different concentrations (1 μM, 10 μM, and 100 μM) was administered.
After the time of administration, 20 μl of MTT (5 mg/ml) was added to each well, the cells were further incubated at 37° C. for 4 h, a culture medium was aspirated and discarded, 150 μl of dimethyl sulfoxide (DMSO) was added to each well, incubation was performed at 37° C. for 10 min, and the absorbance was measured at 490 nm.

[2] = biological target: T1, interaction between FXR protein and Caspase 8 protein (Homo sapiens, UniProt Q14790+Q96RI1); experiment: Co-IP/Western blot of the FXR-Caspase 8 interaction in apoptotic L02 hepatocytes; format: cell-based; details: L02 cells, ActD/TNFα-induced apoptosis, 3C1 at 1, 10, 100 μM for 2 h, FIG. 3
T1 construct: endogenous in cells; host or cells: L02 human hepatocyte cell line
Method: A human hepatocyte cell line L02 was cultured in a complete DMEM containing 10% FBS, and placed in a culture incubator containing 5% CO2 for culturing at 37° C., and cells in a logarithmic growth phase were inoculated in a 12-well plate at a density of 2×10^5 cells/well. After 24 h, an apoptosis model was constructed by means of human tumor necrosis factor-related apoptosis-inducing ligand (TRAIL), Actinomycin D (ActD)/tumor necrosis factor alpha (TNFα), and cycloheximide (CHX)/Fas ligand (FasL) methods respectively. Cells were treated with TRAIL at 50 ng/ml for 0, 2, 4, 8, 12, and 24 h, respectively. […] Cells were incubated with ActD/TNFα for 0, 1, 2, 4, 8, and 12 h, respectively. […] Cells were incubated with […] for 0, 2, 4, and 8 h, respectively.
1) Cells were washed twice with pre-chilled phosphate-buffered saline (PBS), an appropriate amount of pre-chilled PBS was added for the last time, a pre-chilled cell scraper was used to scrape the cells from a culture dish or a culture flask, and a suspension was transferred to a 1.5 ml electropolished (EP) tube. […] A protein concentration was determined through a bicinchoninic acid (BCA) assay. […]

[3] = biological target: T1, interaction between FXR protein and Caspase 8 protein; experiment: Co-IP/Western blot of the FXR-Caspase 8 interaction in healthy L02 hepatocytes; format: cell-based; details: 3C1 at 1, 10, 100 μM for 2 h, FIG. 2
Method: 1) Cells were washed twice with pre-chilled phosphate-buffered saline (PBS), an appropriate amount of pre-chilled PBS was added for the last time, a pre-chilled cell scraper was used to scrape the cells from a culture dish or a culture flask, and a suspension was transferred to a 1.5 ml electropolished (EP) tube. After centrifugation at 4° C. and 4000 rpm for 5 min, a supernatant was discarded, an appropriate amount of an NP40 lysis buffer was added, a mixture obtained was shaken evenly, and the cells were ultrasonicated for a total of 3 times (5 s per time) until the cells were completely lysed. After centrifugation at 4° C. and 14000 g for 10 min, a supernatant was transferred to a new EP tube, to obtain a protein lysis buffer. A protein concentration was determined through a bicinchoninic acid (BCA) assay.
2) 25 μl of Protein A Beads was taken and blocked with 5% bovine serum albumin (BSA) for 1 h at room temperature, and then washed with the PBS for 3 times, and a supernatant was discarded after centrifugation at 14000 g for 1 min each time. The protein lysis buffer with a uniform concentration was added to the Beads, rocking-turn was performed at 4° C. for 1 h, and a sample was pre-cleared. After centrifugation at 14000 g for 1 min, a supernatant was transferred to a new EP tube. […]

[4] = system: C57BL/6 mice; experiment: CCl4-induced liver injury of mice; format: in vivo, mouse; details: CCl4-injected C57BL/6 mice, 3C1 at 5 or 10 mg/kg/day i.p.
Method: Before the experiment, C57BL/6 mice were acclimated for one week under the conditions of, room temperature at 22-26° C. and relative humidity of 40-60%, with light alternated with darkness for 12 h. Each mouse was housed in a separate cage with free access to water and food, and their body weights were maintained at 20-22 g. Experimental groups included a blank control group, a model group, a low-dose 3C1 administration group (5 mg/kg), and a high-dose 3C1 administration group (10 mg/kg).
The C57BL/6 mice in the low-dose 3C1 administration group and the high-dose 3C1 administration group were pre-administered with intraperitoneal injections of 3C1 at a dose of 5 mg/kg/day or 10 mg/kg/day, and the mice in other groups were subject to vehicle control. 3 days later, liver injury was induced by intraperitoneal injections of CCl4, and the control group was administered with mineral oil. The mice were euthanized 48 h later. Blood and livers of the mice were collected.
After standing at room temperature for 0.5 h, whole blood was centrifuged at 8000 rpm for 10 min, and a supernatant was transferred to a new electropolished (EP) tube to obtain serum. Alanine transaminase (ALT) and aspartate transaminase (AST) were detected according to instructions of ALT and AST assay kits.
1) 20 mg of a liver tissue sample from each mouse was weighed, 1.0 ml of RNAiso Plus was added, the samples were homogenized, and a homogenate was transferred to a centrifuge tubes, kept standing at room temperature for 5 min, and centrifuged at 4° C. and 12000 g for 5 min.
2) 800 μl of a supernatant was transferred, 160 μl of chloroform was added, and a mixture obtained was vigorously shaken for 15 sec, and then centrifuged at 12000 g for 15 min after standing at room temperature for 5 min. A sample included three layers: a bottom layer as a yellow organic phase, an upper layer as a colorless aqueous phase, and an intermediate layer.
3) 300 μl of the upper aqueous phase was carefully transferred to a new tube, 300 μl of isopropanol was added, after inverting and mixing, a mixture obtained stood at room temperature for 10 min, and after centrifugation at 12000 g for 10 min, the supernatant was discarded.
An RNA precipitate was washed with 1.0 ml of pre-chilled 75% ethanol and then centrifuged at 12000 g for 5 min, and a supernatant was discarded to obtain total RNA, which was reconstituted with 20 μl of DEPC water and diluted to […] after quantification.
According to a system ratio indicated in the specification, the RNA solution and kit components were prepared into a system with a total volume of 20 μl, and a programmed temperature was set for reverse transcription. Specific ratio requirements were as follows:
The PCR system is as follows:
Wuhan Servicebio Co., Ltd. was entrusted to complete H&E staining and Sirius Red staining.

T1 sequence (Q96RI1 whole entry): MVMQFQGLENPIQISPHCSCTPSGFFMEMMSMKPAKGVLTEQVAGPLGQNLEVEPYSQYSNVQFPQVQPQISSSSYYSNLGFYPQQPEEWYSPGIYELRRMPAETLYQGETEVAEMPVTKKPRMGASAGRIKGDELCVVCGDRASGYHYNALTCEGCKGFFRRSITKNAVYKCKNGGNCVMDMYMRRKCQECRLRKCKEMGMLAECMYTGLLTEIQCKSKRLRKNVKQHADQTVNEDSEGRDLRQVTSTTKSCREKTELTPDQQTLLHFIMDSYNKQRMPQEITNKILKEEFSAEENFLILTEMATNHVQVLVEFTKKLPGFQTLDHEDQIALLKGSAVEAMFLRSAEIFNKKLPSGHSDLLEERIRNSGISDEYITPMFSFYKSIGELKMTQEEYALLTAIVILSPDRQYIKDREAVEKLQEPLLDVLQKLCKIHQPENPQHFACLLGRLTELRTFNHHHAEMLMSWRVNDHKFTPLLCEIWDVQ
T1 sequence (Q14790 217-479): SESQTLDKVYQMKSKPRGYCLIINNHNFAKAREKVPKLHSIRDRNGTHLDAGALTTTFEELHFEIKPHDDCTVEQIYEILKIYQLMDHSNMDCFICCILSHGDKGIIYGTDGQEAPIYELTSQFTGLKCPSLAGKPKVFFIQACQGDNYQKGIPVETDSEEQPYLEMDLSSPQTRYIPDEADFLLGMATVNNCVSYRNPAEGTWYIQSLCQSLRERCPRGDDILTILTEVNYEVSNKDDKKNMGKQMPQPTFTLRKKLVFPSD

## Cc1n[nH]c(=S)nc1Nc1ccc(F)c(Cl)c1 [Compound 3C1]
[1]; ActD 30 min then TNFα 20 ng/ml for 8 h
  anti-apoptotic effect (cell viability, MTT): significant anti-apoptotic effects
[1]; CHX 50 μM 30 min then FasL 50 ng/ml for 8 h
  anti-apoptotic effect (cell viability, MTT): significant anti-apoptotic effects
[1]; TRAIL 50 ng/ml for 24 h
  anti-apoptotic effect (cell viability, MTT): significant anti-apoptotic effects
[2]
  interaction between FXR protein and Caspase 8 protein in apoptotic hepatocytes: could reverse this reduction
[3]
  interaction between FXR protein and Caspase 8 protein in healthy cells: obviously enhanced the interaction between FXR protein and Caspase 8 protein in healthy cells in a dose-dependent manner
[4]; FIG. 5A
  serum ALT level: significantly reduced the elevated levels
[4]; FIG. 5B
  serum AST level: significantly reduced the elevated levels
[4]; FIG. 5C
  liver pathology, H&E staining: significant remission in the disorders of liver lobule structures, decreased infiltration of inflammatory cell, and less collagen fibers in the portal area
[4]; FIG. 5D
  liver pathology, Sirius Red staining (red collagen fibers): hyperplasia of red collagen fibers in the livers was significantly alleviated
[4]; RT-PCR, P<0.001, FIG. 5E
  liver Timp1 mRNA level: significantly reduced their mRNA levels (P<0.001) in a dose-dependent manner
[4]; RT-PCR, P<0.001, FIG. 5F
  liver Timp2 mRNA level: significantly reduced their mRNA levels (P<0.001) in a dose-dependent manner
